Results published in the supplement of paper PMC11451515.

Key:
SEM cells [1] = test: cell viability relative to DMSO control; higher = less cytotoxic; settings: 48 h
In short: (§1)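 Viability is expressed as a percentage of DMSO wells within each plate, and cell-free wells serve as background. Seeding densities in the 1536-well plates (5 μl) were 500 cells/well for NOMO1 or SEM leukemia cells and 1000 cells/well for P12-Ichikawa. Each line was adapted for at least four passages in each medium. Library compounds in DMSO were pin-dosed at 47 μM to 0.79 nM (11 points, threefold), and CellTiter-Glo One luminescence was read after 48 h at 37°C.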

NOMO1 [2] = test: AUC of viability dose-response curve (% viability x log10 dose units); higher = less sensitive; settings: 48 h
In short: (§2)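 Leukemia cells adapted to each medium were seeded in 1536-well plates (500 or 1000 cells/well). They were dosed with library compounds in DMSO at 11 threefold doses, 47 μM to 0.79 nM, for 48 h at 37°C. CellTiter-Glo One luminescence was normalised per plate to DMSO and cell-free wells. Area under the curve was integrated by trapezoidal rule over log10 doses on a four-parameter log-logistic fit; curves exceeding full viability were scaled and curves failing quality control removed.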

P12-Ichikawa [3] = test: as above; settings: 48 h
In short: as §2

SEM cells [4] = test: as above; settings: 48 h
In short: as §2

NOMO1 [5] = test: cell viability relative to DMSO control; higher = less cytotoxic; settings: HPLM + 10% dialyzed FBS, 48 h
In short: as §1

P12-Ichikawa [6] = test: as above; settings: HPLM + 10% dialyzed FBS, 48 h
In short: as §1

[7] = HPLM + 10% dialyzed FBS, 0.000781 µM
[8] = HPLM + 10% dialyzed FBS, 0.00234 µM
[9] = HPLM + 10% dialyzed FBS, 0.00702 µM
[10] = HPLM + 10% dialyzed FBS, 0.0211 µM
[11] = HPLM + 10% dialyzed FBS, 0.0632 µM
[12] = HPLM + 10% dialyzed FBS, 0.19 µM
[13] = HPLM + 10% dialyzed FBS, 0.569 µM
[14] = HPLM + 10% dialyzed FBS, 1.71 µM
[15] = HPLM + 10% dialyzed FBS, 5.12 µM
[16] = HPLM + 10% dialyzed FBS, 15.4 µM
[17] = HPLM + 10% dialyzed FBS, 46.1 µM
[18] = RPMI 5 mM glucose + 10% dialyzed FBS

Structure (SMILES): NC/1=N/[C@]2(COC[C@H]2CS1)C3=CC(=CC=C3F)NC(=O)C4=NC=C(F)C=C4
- cell viability (SEM cells [1]; [7]): 90.8%
- cell viability (SEM cells [1]; [8]): 111%
- cell viability (SEM cells [1]; [9]): 131%
- cell viability (SEM cells [1]; [10]): 127%
- cell viability (SEM cells [1]; [11]): 132%
- cell viability (SEM cells [1]; [12]): 140%
- cell viability (SEM cells [1]; [13]): 130%
- cell viability (SEM cells [1]; [14]): 135%
- cell viability (SEM cells [1]; [15]): 136%
- cell viability (SEM cells [1]; [16]): 147%
- cell viability (SEM cells [1]; [17]): 110%
- cell viability (SEM cells [1]; RPMI 5 mM glucose + 10% FBS, 0.000781 µM): 119%
- cell viability (SEM cells [1]; RPMI 5 mM glucose + 10% FBS, 0.00234 µM): 120%
- cell viability (SEM cells [1]; RPMI 5 mM glucose + 10% FBS, 0.00702 µM): 129%
- cell viability (SEM cells [1]; RPMI 5 mM glucose + 10% FBS, 0.0211 µM): 135%
- cell viability (SEM cells [1]; RPMI 5 mM glucose + 10% FBS, 0.0632 µM): 138%
- cell viability (SEM cells [1]; RPMI 5 mM glucose + 10% FBS, 0.19 µM): 149%
- cell viability (SEM cells [1]; RPMI 5 mM glucose + 10% FBS, 0.569 µM): 127%
- cell viability (SEM cells [1]; RPMI 5 mM glucose + 10% FBS, 1.71 µM): 141%
- cell viability (SEM cells [1]; RPMI 5 mM glucose + 10% FBS, 5.12 µM): 155%
- cell viability (SEM cells [1]; RPMI 5 mM glucose + 10% FBS, 15.4 µM): 29%
- cell viability (SEM cells [1]; RPMI 5 mM glucose + 10% FBS, 46.1 µM): 7.7%
- AUC of viability dose-response curve (NOMO1 [2]; HPLM + 10% dialyzed FBS): 324
- AUC of viability dose-response curve (NOMO1 [2]; RPMI 5 mM glucose + 10% FBS): 302
- AUC of viability dose-response curve (NOMO1 [2]; [18]): 313
- AUC of viability dose-response curve (P12-Ichikawa [3]; HPLM + 10% dialyzed FBS): 350
- AUC of viability dose-response curve (P12-Ichikawa [3]; RPMI 5 mM glucose + 10% FBS): 348
- AUC of viability dose-response curve (P12-Ichikawa [3]; [18]): 374
- AUC of viability dose-response curve (SEM cells [4]; HPLM + 10% dialyzed FBS): 461
- AUC of viability dose-response curve (SEM cells [4]; RPMI 5 mM glucose + 10% FBS): 417
- AUC of viability dose-response curve (SEM cells [4]; [18]): 471

Structure (SMILES): O=[S+]([O-])(CC1CS1)c1ccc(Oc2ccccc2)cc1 (centres undefined)
- AUC of viability dose-response curve (NOMO1 [2]; HPLM + 10% dialyzed FBS): 448
- AUC of viability dose-response curve (NOMO1 [2]; RPMI 5 mM glucose + 10% FBS): 461
- AUC of viability dose-response curve (NOMO1 [2]; [18]): 435
- AUC of viability dose-response curve (P12-Ichikawa [3]; HPLM + 10% dialyzed FBS): 462
- AUC of viability dose-response curve (P12-Ichikawa [3]; RPMI 5 mM glucose + 10% FBS): 445
- AUC of viability dose-response curve (P12-Ichikawa [3]; [18]): 447
- AUC of viability dose-response curve (SEM cells [4]; HPLM + 10% dialyzed FBS): 451
- AUC of viability dose-response curve (SEM cells [4]; RPMI 5 mM glucose + 10% FBS): 437
- AUC of viability dose-response curve (SEM cells [4]; [18]): 450

Structure (SMILES): CO[C@@H]1COCC[C@@H]1N[C@@H]1CC[C@@](C(=O)N2CCc3ncc(C(F)(F)F)cc3C2)(C(C)C)C1
- cell viability (NOMO1 [5]; 0.000781 µM): 107%
- cell viability (NOMO1 [5]; 0.00234 µM): 133%
- cell viability (NOMO1 [5]; 0.00702 µM): 121%
- cell viability (NOMO1 [5]; 0.0211 µM): 142%
- cell viability (NOMO1 [5]; 0.0632 µM): 157%
- cell viability (NOMO1 [5]; 0.19 µM): 141%
- cell viability (NOMO1 [5]; 0.569 µM): 132%
- cell viability (NOMO1 [5]; 1.71 µM): 127%
- cell viability (NOMO1 [5]; 5.12 µM): 143%
- cell viability (NOMO1 [5]; 15.4 µM): 151%
- cell viability (NOMO1 [5]; 46.1 µM): 96.6%
- cell viability (P12-Ichikawa [6]; 0.000781 µM): 98%
- cell viability (P12-Ichikawa [6]; 0.00234 µM): 109%
- cell viability (P12-Ichikawa [6]; 0.00702 µM): 123%
- cell viability (P12-Ichikawa [6]; 0.0211 µM): 119%
- cell viability (P12-Ichikawa [6]; 0.0632 µM): 113%
- cell viability (P12-Ichikawa [6]; 0.19 µM): 119%
- cell viability (P12-Ichikawa [6]; 0.569 µM): 118%
- cell viability (P12-Ichikawa [6]; 1.71 µM): 126%
- cell viability (P12-Ichikawa [6]; 5.12 µM): 127%
- cell viability (P12-Ichikawa [6]; 15.4 µM): 123%
- cell viability (P12-Ichikawa [6]; 46.1 µM): 47.4%
- cell viability (SEM cells [1]; [7]): 97.1%
- cell viability (SEM cells [1]; [8]): 107%
- cell viability (SEM cells [1]; [9]): 110%
- cell viability (SEM cells [1]; [10]): 112%
- cell viability (SEM cells [1]; [11]): 111%
- cell viability (SEM cells [1]; [12]): 113%
- cell viability (SEM cells [1]; [13]): 114%
- cell viability (SEM cells [1]; [14]): 102%
- cell viability (SEM cells [1]; [15]): 119%
- cell viability (SEM cells [1]; [16]): 103%
- cell viability (SEM cells [1]; [17]): 68.1%
- AUC of viability dose-response curve (NOMO1 [2]; HPLM + 10% dialyzed FBS): 472
- AUC of viability dose-response curve (NOMO1 [2]; RPMI 5 mM glucose + 10% FBS): 466
- AUC of viability dose-response curve (NOMO1 [2]; [18]): 472
- AUC of viability dose-response curve (SEM cells [4]; HPLM + 10% dialyzed FBS): 466
- AUC of viability dose-response curve (SEM cells [4]; RPMI 5 mM glucose + 10% FBS): 458
- AUC of viability dose-response curve (SEM cells [4]; [18]): 467

Structure (SMILES): CCCCCC[C@H]1C(=O)O[C@H](C)[C@H](NC(=O)c2cccc(NC=O)c2O)C(=O)O[C@@H](C)[C@@H]1OC(=O)CC(C)C
- cell viability (SEM cells [1]; [7]): 90.7%
- cell viability (SEM cells [1]; [8]): 130%
- cell viability (SEM cells [1]; [9]): 111%
- cell viability (SEM cells [1]; [10]): 113%
- cell viability (SEM cells [1]; [11]): 115%
- cell viability (SEM cells [1]; [12]): 123%
- cell viability (SEM cells [1]; [13]): 137%
- cell viability (SEM cells [1]; [14]): 111%
- cell viability (SEM cells [1]; [15]): 110%
- cell viability (SEM cells [1]; [16]): 112%
- cell viability (SEM cells [1]; [17]): 101%
- AUC of viability dose-response curve (NOMO1 [2]; HPLM + 10% dialyzed FBS): 444
- AUC of viability dose-response curve (NOMO1 [2]; RPMI 5 mM glucose + 10% FBS): 438
- AUC of viability dose-response curve (NOMO1 [2]; [18]): 442
- AUC of viability dose-response curve (P12-Ichikawa [3]; HPLM + 10% dialyzed FBS): 417
- AUC of viability dose-response curve (P12-Ichikawa [3]; RPMI 5 mM glucose + 10% FBS): 403
- AUC of viability dose-response curve (P12-Ichikawa [3]; [18]): 403
- AUC of viability dose-response curve (SEM cells [4]; HPLM + 10% dialyzed FBS): 476
- AUC of viability dose-response curve (SEM cells [4]; RPMI 5 mM glucose + 10% FBS): 403
- AUC of viability dose-response curve (SEM cells [4]; [18]): 416
